Test system: participants with SSc-RP
Assay: Frequency of weekly RP attacks (all attacks; primary endpoint), patient diary
Format: in vivo, human
Details: for Weekly RP Attacks (All Attacks) Change from Baseline, Mean / Weekly RP Attacks (All Attacks) Change from Baseline, Median / Weekly RP Attacks (All Attacks) Percent Change from Baseline, Mean / Weekly RP Attacks (All Attacks) Percent Change from Baseline, Median / Weekly RP Attacks (All Attacks), Mean / Weekly RP Attacks (All Attacks), Median: ITT Part A; for reduction in weekly frequency of attacks: typical Raynaud attacks
Source text: Percent change from baseline evaluation for frequency of weekly RP attacks were or will be used as the primary efficacy variable. The sponsor-developed participant-informed diary will be used to record data. Frequency of weekly RP attacks is defined as the total number of RP attacks divided by the number of days with available diary data within the last 7 days of each dosing period then multiplied by 7. Total number of RP attacks during the last 7 days of screening period divided by the number of days with available data then multiplied by 7 will be used as baseline for the analysis of all periods. The variable will be calculated as follows: […]
Percent change from baseline evaluation for frequency of weekly RP attacks was and will be the primary efficacy endpoint. Frequency of weekly RP attacks is defined as the total number of RP attacks divided by the number of days with available diary data within the last 7 days of each dosing period then multiplied by 7. Total number of RP attacks during the last 7 days of screening period divided by the number of days with available data then multiplied by 7 will be used as baseline for the analysis of all periods.

[1] = Cilnidipine 10 mg, Baseline RCS stratum 1 (upper half of table)
[2] = Cilnidipine 10 mg, Excluding Outliers, Baseline RCS stratum 1 (upper half of table)
[3] = Cilnidipine 20 mg, Baseline RCS stratum 1 (upper half of table)
[4] = Cilnidipine 20 mg, Excluding Outliers, Baseline RCS stratum 1 (upper half of table)
[5] = Pooled Cilnidipine 10 mg and Cilnidipine 10 mg + Tadalafil 5 mg, Baseline RCS stratum 2 (lower half of table)
[6] = Pooled Cilnidipine 10 mg and Cilnidipine 10 mg + Tadalafil 5 mg, Excluding Outliers, Baseline RCS stratum 1 (upper half of table)
[7] = Pooled Cilnidipine 10 mg and Cilnidipine 10 mg + Tadalafil 5 mg, Excluding Outliers, Baseline RCS stratum 2 (lower half of table)
[8] = Pooled Cilnidipine 10 mg and Cilnidipine 10 mg + Tadalafil 5 mg, n=3, excluding outliers, last 7 days of dosing
[9] = Pooled Cilnidipine 10 mg and Cilnidipine 10 mg + Tadalafil 5 mg, n=3, last 7 days of dosing
[10] = Pooled Cilnidipine 20 mg and Cilnidipine 20 mg + Tadalafil 5 mg, Baseline RCS stratum 1 (upper half of table)
[11] = Pooled Cilnidipine 20 mg and Cilnidipine 20 mg + Tadalafil 5 mg, Excluding Outliers, Baseline RCS stratum 1 (upper half of table)
[12] = Pooled Cilnidipine 20 mg and Cilnidipine 20 mg + Tadalafil 5 mg, Excluding Outliers, Baseline RCS stratum 2 (lower half of table)
[13] = Pooled Cilnidipine 20 mg and Cilnidipine 20 mg + Tadalafil 5 mg, n=4, excluding outliers, last 7 days of dosing
[14] = Pooled Cilnidipine 20 mg and Cilnidipine 20 mg + Tadalafil 5 mg, n=4, last 7 days of dosing
[15] = Pooled Cilnidipine arms, n=3, excluding outliers, last 7 days of dosing
[16] = Pooled Cilnidipine arms, n=3, last 7 days of dosing
[17] = Pooled Cilnidipine, Baseline RCS stratum 1 (upper half of table)
[18] = Pooled Cilnidipine, Excluding Outliers, Baseline RCS stratum 1 (upper half of table)
[19] = cilnidipine 10 mg daily, n=1, excluding outliers, last 7 days of dosing
[20] = cilnidipine 10 mg daily, n=1, last 7 days of dosing
[21] = cilnidipine 20 mg daily, n=2, excluding outliers, last 7 days of dosing
[22] = cilnidipine 20 mg daily, n=2, last 7 days of dosing

## COCCOC(=O)C1=C(C)NC(C)=C(C(=O)OC/C=C/c2ccccc2)C1c1cccc([N+](=O)[O-])c1 (stereo not shown) [Cilnidipine]
[1]
  Weekly RP Attacks (All Attacks) Change from Baseline, Mean: −9.00
  Weekly RP Attacks (All Attacks) Change from Baseline, Median: −9.00
  Weekly RP Attacks (All Attacks) Percent Change from Baseline, Mean: −28.13%
  Weekly RP Attacks (All Attacks) Percent Change from Baseline, Median: −28.13%
  Weekly RP Attacks (All Attacks), Mean: 23.00
  Weekly RP Attacks (All Attacks), Median: 23.00
[2]
  Weekly RP Attacks (All Attacks) Change from Baseline, Mean: −9.00
  Weekly RP Attacks (All Attacks) Change from Baseline, Median: −9.00
  Weekly RP Attacks (All Attacks) Percent Change from Baseline, Mean: −28.13%
  Weekly RP Attacks (All Attacks) Percent Change from Baseline, Median: −28.13%
  Weekly RP Attacks (All Attacks), Mean: 23.00
  Weekly RP Attacks (All Attacks), Median: 23.00
Cilnidipine 20 mg (n = 3)
  Weekly attack frequency (change): −43%
[3]
  Weekly RP Attacks (All Attacks) Change from Baseline, Mean: −6.67
  Weekly RP Attacks (All Attacks) Change from Baseline, Median: −6.67
  Weekly RP Attacks (All Attacks) Percent Change from Baseline, Mean: −45.71%
  Weekly RP Attacks (All Attacks) Percent Change from Baseline, Median: −45.71%
  Weekly RP Attacks (All Attacks), Mean: 8.00
  Weekly RP Attacks (All Attacks), Median: 8.00
[4]
  Weekly RP Attacks (All Attacks) Change from Baseline, Mean: −6.67
  Weekly RP Attacks (All Attacks) Change from Baseline, Median: −6.67
  Weekly RP Attacks (All Attacks) Percent Change from Baseline, Mean: −45.71%
  Weekly RP Attacks (All Attacks) Percent Change from Baseline, Median: −45.71%
  Weekly RP Attacks (All Attacks), Mean: 8.00
  Weekly RP Attacks (All Attacks), Median: 8.00
[5]
  Weekly RP Attacks (All Attacks) Change from Baseline, Median: −5.00
  Weekly RP Attacks (All Attacks), Median: 6.00
[6]
  Weekly RP Attacks (All Attacks) Change from Baseline, Mean: −6.50
  Weekly RP Attacks (All Attacks) Change from Baseline, Median: −6.50
  Weekly RP Attacks (All Attacks) Percent Change from Baseline, Mean: −36.28%
  Weekly RP Attacks (All Attacks) Percent Change from Baseline, Median: −36.28%
  Weekly RP Attacks (All Attacks), Mean: 14.00
  Weekly RP Attacks (All Attacks), Median: 14.00
[7]
  Weekly RP Attacks (All Attacks) Change from Baseline, Mean: −5.00
  Weekly RP Attacks (All Attacks) Change from Baseline, Median: −5.00
  Weekly RP Attacks (All Attacks) Percent Change from Baseline, Mean: −45.45%
  Weekly RP Attacks (All Attacks) Percent Change from Baseline, Median: −45.45%
  Weekly RP Attacks (All Attacks), Mean: 6.00
  Weekly RP Attacks (All Attacks), Median: 6.00
[8]
  Weekly RP Attacks (All Attacks) Change from Baseline, Mean: −6.00
  Weekly RP Attacks (All Attacks) Change from Baseline, Median: −5.00
  Weekly RP Attacks (All Attacks) Percent Change from Baseline, Mean: −39.34%
  Weekly RP Attacks (All Attacks) Percent Change from Baseline, Median: −44.44%
  Weekly RP Attacks (All Attacks), Mean: 11.33
  Weekly RP Attacks (All Attacks), Median: 6.00
[9]
  Weekly RP Attacks (All Attacks) Change from Baseline, Mean: −6.00
  Weekly RP Attacks (All Attacks) Change from Baseline, Median: −5.00
  Weekly RP Attacks (All Attacks) Percent Change from Baseline, Mean: −39.34%
  Weekly RP Attacks (All Attacks) Percent Change from Baseline, Median: −44.44%
  Weekly RP Attacks (All Attacks), Mean: 11.33
  Weekly RP Attacks (All Attacks), Median: 6.00
[10]
  Weekly RP Attacks (All Attacks) Percent Change from Baseline, Median: −45.00%
  Weekly RP Attacks (All Attacks), Median: 11.00
Pooled Cilnidipine 20 mg and Cilnidipine 20 mg + Tadalafil 5 mg, Baseline RCS stratum 2 (lower half of table)
  Weekly RP Attacks (All Attacks), Median: 11.00
[11]
  Weekly RP Attacks (All Attacks) Change from Baseline, Mean: −5.78
  Weekly RP Attacks (All Attacks) Percent Change from Baseline, Mean: −37.49%
  Weekly RP Attacks (All Attacks) Percent Change from Baseline, Median: −45.00%
  Weekly RP Attacks (All Attacks), Mean: 10.33
  Weekly RP Attacks (All Attacks), Median: 11.00
[12]
  Weekly RP Attacks (All Attacks) Change from Baseline, Mean: −1.83
  Weekly RP Attacks (All Attacks) Change from Baseline, Median: −1.83
  Weekly RP Attacks (All Attacks) Percent Change from Baseline, Mean: −14.29%
  Weekly RP Attacks (All Attacks) Percent Change from Baseline, Median: −14.29%
  Weekly RP Attacks (All Attacks), Mean: 11.00
  Weekly RP Attacks (All Attacks), Median: 11.00
[13]
  Weekly RP Attacks (All Attacks) Change from Baseline, Mean: −4.79
  Weekly RP Attacks (All Attacks) Change from Baseline, Median: −4.17
  Weekly RP Attacks (All Attacks) Percent Change from Baseline, Mean: −31.69%
  Weekly RP Attacks (All Attacks) Percent Change from Baseline, Median: −33.03%
  Weekly RP Attacks (All Attacks), Mean: 10.50
  Weekly RP Attacks (All Attacks), Median: 11.00
[14]
  Weekly RP Attacks (All Attacks) Change from Baseline, Mean: −4.79
  Weekly RP Attacks (All Attacks) Change from Baseline, Median: −4.17
  Weekly RP Attacks (All Attacks) Percent Change from Baseline, Mean: −31.69%
  Weekly RP Attacks (All Attacks) Percent Change from Baseline, Median: −33.03%
  Weekly RP Attacks (All Attacks), Mean: 10.50
  Weekly RP Attacks (All Attacks), Median: 11.00
Pooled Cilnidipine (n = 7)
  Weekly attack frequency (change): −41%
[15]
  Weekly RP Attacks (All Attacks) Change from Baseline, Mean: −7.44
  Weekly RP Attacks (All Attacks) Change from Baseline, Median: −9.00
  Weekly RP Attacks (All Attacks) Percent Change from Baseline, Mean: −39.85%
  Weekly RP Attacks (All Attacks) Percent Change from Baseline, Median: −45.00%
  Weekly RP Attacks (All Attacks), Mean: 13.00
  Weekly RP Attacks (All Attacks), Median: 11.00
[16]
  Weekly RP Attacks (All Attacks) Change from Baseline, Median: −9.00
  Weekly RP Attacks (All Attacks) Percent Change from Baseline, Median: −45.00%
  Weekly RP Attacks (All Attacks), Mean: 13.00
  Weekly RP Attacks (All Attacks), Median: 11.00
[17]
  Weekly RP Attacks (All Attacks) Change from Baseline, Mean: −7.44
  Weekly RP Attacks (All Attacks) Change from Baseline, Median: −9.00
  Weekly RP Attacks (All Attacks) Percent Change from Baseline, Mean: −39.85%
  Weekly RP Attacks (All Attacks) Percent Change from Baseline, Median: −45.00%
  Weekly RP Attacks (All Attacks), Mean: 13.00
  Weekly RP Attacks (All Attacks), Median: 11.00
[18]
  Weekly RP Attacks (All Attacks) Change from Baseline, Mean: −7.44
  Weekly RP Attacks (All Attacks) Change from Baseline, Median: −9.00
  Weekly RP Attacks (All Attacks) Percent Change from Baseline, Mean: −39.85%
  Weekly RP Attacks (All Attacks) Percent Change from Baseline, Median: −45.00%
  Weekly RP Attacks (All Attacks), Mean: 13.00
  Weekly RP Attacks (All Attacks), Median: 11.00
[19]
  Weekly RP Attacks (All Attacks) Change from Baseline, Mean: −9.00
  Weekly RP Attacks (All Attacks) Change from Baseline, Median: −9.00
  Weekly RP Attacks (All Attacks), Mean: 23.00
  Weekly RP Attacks (All Attacks), Median: 23.00
[20]
  Weekly RP Attacks (All Attacks) Change from Baseline, Mean: −9.00
  Weekly RP Attacks (All Attacks) Change from Baseline, Median: −9.00
  Weekly RP Attacks (All Attacks), Mean: 23.00
  Weekly RP Attacks (All Attacks), Median: 23.00
[21]
  Weekly RP Attacks (All Attacks) Change from Baseline, Mean: −6.67
  Weekly RP Attacks (All Attacks) Change from Baseline, Median: −6.67
  Weekly RP Attacks (All Attacks) Percent Change from Baseline, Mean: −45.71%
  Weekly RP Attacks (All Attacks) Percent Change from Baseline, Median: −45.71%
  Weekly RP Attacks (All Attacks), Mean: 8.00
  Weekly RP Attacks (All Attacks), Median: 8.00
[22]
  Weekly RP Attacks (All Attacks), Mean: 8.00
  Weekly RP Attacks (All Attacks), Median: 8.00
Cilnidipine 10 mg (dose response, n=3)
  reduction in weekly frequency of attacks: 28%
Cilnidipine 20 mg (dose response, n=3)
  reduction in weekly frequency of attacks: 46%

From patent publication US20240358692A1, “TREATMENT OF SCLERODERMA” (Aisa Pharma, Inc., priority 2023, published 2024)
